Test results published in ChEMBL document CHEMBL6178023 (J Med Chem, 2025).
≈ marks a conversion by molar mass, not a printed value. Calls of active or inactive are those of the source. The rule behind the calls is not given here.

What was measured:
[1] = test system: Chikungunya virus; experiment: Antiviral activity against CHIKV 181/25 expressing nLuc-capsid gene infected in human MRC5 cells assessed as reduction in viral replication preincubated with cells for 1 hr followed by viral infection measured after 6 hrs post-infection by Nano-glo luciferase assay; assay type: functional, organism-based; conditions: 181/25, MRC5, read-out: pEC50 (converted)
[2] = test system: Chikungunya virus; experiment: Inhibition of N-terminal 6-His/SUMO-tagged CHIKV 181/25 nsP2 extracted from Escherichia coli Rosetta 2 at 200 uM preincubated for 30 mins followed by ATP addition measured after 1 hr by ADP-Glo assay relative to control; conditions: time 90.0 min
[3] = Aqueous solubility of compound in PBS at pH 7.4; assay type: physicochemical
[4] = test system: Chikungunya virus; experiment: Antiviral activity against CHIKV 181/25 expressing nLuc-capsid gene infected in human MRC5 cells assessed as inhibition of viral replication at 40 uM preincubated with cells for 1 hr followed by viral infection measured after 6 hrs post-infection by Nano-glo luciferase assay relative to control; assay type: functional; conditions: for inhibition at 40 µM: 181/25, MRC5, time 7 hrs; for inhibition: time 7.0 hrs
[5] = test system: MRC5; experiment: Cytotoxicity against human MRC5 cells at 10 to 40 uM by Cell Titer Glo assay; assay type: toxicity, cell-based; conditions: mrc5, 40 µM, dose 10-40 µM
[6] = molecular target: Polyprotein P1234 (Chikungunya virus (strain S27-African prototype) (CHIKV), UniProt Q8JUX6); experiment: Inhibition of N-terminal 6-His/SUMO-tagged CHIKV 181/25 nsP2 extracted from Escherichia coli Rosetta 2 preincubated for 30 mins followed by ATP addition measured after 1 hr by ADP-Glo assay
Chain of Polyprotein P1234 (Q8JUX6 536-1333 limits assumed): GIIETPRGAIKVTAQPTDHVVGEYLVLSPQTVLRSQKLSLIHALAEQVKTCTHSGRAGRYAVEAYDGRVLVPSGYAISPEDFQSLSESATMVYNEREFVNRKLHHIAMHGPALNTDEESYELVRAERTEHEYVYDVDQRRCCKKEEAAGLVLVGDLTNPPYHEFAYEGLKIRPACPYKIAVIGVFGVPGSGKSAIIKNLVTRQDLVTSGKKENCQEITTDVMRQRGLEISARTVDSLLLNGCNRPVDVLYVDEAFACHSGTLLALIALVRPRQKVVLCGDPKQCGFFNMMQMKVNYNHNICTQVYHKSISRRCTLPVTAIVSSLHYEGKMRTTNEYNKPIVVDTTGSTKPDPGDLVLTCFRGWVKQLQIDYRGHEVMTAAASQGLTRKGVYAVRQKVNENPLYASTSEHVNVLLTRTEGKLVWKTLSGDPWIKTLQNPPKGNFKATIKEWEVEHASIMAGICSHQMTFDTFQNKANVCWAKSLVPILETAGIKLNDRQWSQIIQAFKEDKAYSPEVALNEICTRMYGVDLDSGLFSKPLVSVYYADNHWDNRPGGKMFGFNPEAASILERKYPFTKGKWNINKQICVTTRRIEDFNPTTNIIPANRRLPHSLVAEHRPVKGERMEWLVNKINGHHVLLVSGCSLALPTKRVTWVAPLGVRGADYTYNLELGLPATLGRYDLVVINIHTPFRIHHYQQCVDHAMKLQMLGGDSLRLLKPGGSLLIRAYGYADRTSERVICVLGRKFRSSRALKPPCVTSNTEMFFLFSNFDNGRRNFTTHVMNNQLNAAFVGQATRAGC

SMILES	EC50 [1]	inhibition [2]	solubility kinetic [3]	inhibition at 40 µM [4]	Activity [5]	inhibition [4]	IC50 [6]
NCC1CCOC2(CCN(C(=O)C3(c4ccccc4)CCCC3)CC2)C1 (stereo not drawn)	> 39.8 µM	inactive	160 µM (≈ 57 µg/mL)	60%	Non-toxic	–	–
CN(C)S(=O)(=O)NCC1CCOC2(CCN(C(=O)C3(c4ccccc4)CCCO3)CC2)C1 (stereo not drawn)	–	inactive	200 µM (≈ 93.1 µg/mL)	–	Non-toxic	inactive	–
CN(C)S(=O)(=O)NCC1CCOC2(CCN(C(=O)C(=O)c3ccccc3)CC2)C1 (stereo not drawn)	–	inactive	170 µM (≈ 72 µg/mL)	–	Non-toxic	inactive	–
CC(C)(C(=O)N1CCC2(CC1)CC(CNS(C)(=O)=O)CCO2)c1ccccc1 (stereo not drawn)	> 39.8 µM	40%	220 µM (≈ 89.9 µg/mL)	50%	Non-toxic	–	> 39.8 µM
Cc1ccc(C2(C(=O)N3CCC4(CC3)CC(CNS(C)(=O)=O)CCO4)CCCC2)cc1 (stereo not drawn)	–	inactive	–	–	Non-toxic	inactive	–
CS(=O)(=O)NCC1CCOC2(CCN(C(=O)Cc3ccccc3)CC2)C1 (stereo not drawn)	–	inactive	200 µM (≈ 76.1 µg/mL)	–	Non-toxic	inactive	–
CS(=O)(=O)NCC1CCOC2(CCN(C(=O)C3(c4ccccc4)CCOCC3)CC2)C1 (stereo not drawn)	–	inactive	190 µM (≈ 85.6 µg/mL)	–	Non-toxic	inactive	–
CN(C)S(=O)(=O)NCC1CCOC2(CCN(C(=O)C3(c4cccnc4)CCCC3)CC2)C1 (stereo not drawn)	> 39.8 µM	inactive	–	50%	Non-toxic	–	–
CN(C)S(=O)(=O)NCC1CCOC2(CCN(C(=O)C3(c4ccncc4)CCCC3)CC2)C1 (stereo not drawn)	–	inactive	–	–	Non-toxic	inactive	–
CC1(C(=O)N2CCC3(CC2)CC(CNS(C)(=O)=O)CCO3)CCCC1 (stereo not drawn)	> 39.8 µM	inactive	–	40%	Non-toxic	–	–
CNCC1CCOC2(CCN(C(=O)C3(c4ccccc4)CCCC3)CC2)C1 (stereo not drawn)	> 39.8 µM	inactive	170 µM (≈ 63 µg/mL)	60%	Non-toxic	–	–
NCC1(O)CCOC2(CCN(C(=O)C3(c4ccccc4)CCCC3)CC2)C1 (stereo not drawn)	> 39.8 µM	inactive	170 µM (≈ 63.3 µg/mL)	50%	Non-toxic	–	–
COc1ccc(C2(C(=O)N3CCC4(CC3)CC(CNS(C)(=O)=O)CCO4)CCCC2)cc1 (stereo not drawn)	–	inactive	–	–	Non-toxic	inactive	–
CCCCCCOc1ccc(C(=O)NCC2CCOC3(CCN(C(=O)C4(c5ccccc5)CCCC4)CC3)C2)cc1 (stereo not drawn)	> 39.8 µM	inactive	< 1 µM	70%	Non-toxic	–	–
CN(C)S(=O)(=O)NCC1CCOC2(CCN(C(=O)C3(c4ccccn4)CCCC3)CC2)C1 (stereo not drawn)	> 39.8 µM	40%	–	70%	Non-toxic	–	> 39.8 µM
O=C(N1CCC2(CC1)CC(CN1CCCCS1(=O)=O)CCO2)C1(c2ccc(F)cc2)CCCC1 (stereo not drawn)	> 39.8 µM	80%	190 µM (≈ 93.6 µg/mL)	90%	Non-toxic	–	> 39.8 µM
CS(=O)(=O)NCC1CCOC2(CCN(C(=O)C3(c4ccc(Cl)cc4)CCCC3)CC2)C1 (stereo not drawn)	> 39.8 µM	inactive	–	70%	Non-toxic	–	–
O=C1CCCN1CC1CCOC2(CCN(C(=O)C3(c4ccccc4)CCCC3)CC2)C1 (stereo not drawn)	2.51 µM	90%	200 µM (≈ 84.9 µg/mL)	–	Non-toxic	–	> 39.8 µM
CS(=O)(=O)NCC1CCOC2(CCN(C(=O)C3(c4ccccc4)CCC3)CC2)C1 (stereo not drawn)	–	inactive	160 µM (≈ 67.3 µg/mL)	–	Non-toxic	inactive	–
